Measured values published in patent publication EP1745781A1, “Combination of pyrazoline type cannabinoid receptor antagonist and statin” (LABORATORIOS DEL DR. ESTEVE, S.A., priority 2005, dated 2007).

Tests used:
Male NMRI mice [1] = assay: Mouse tetrad model: hot plate analgesia; assay type: in vivo; conditions: for Agonistic effect A: Hot-Plate test: 5 mg/kg i.v.; for Antagonistic Effect A: Hot-Plate test: 5 mg/kg i.v. prior to Win 55212-2 in a dose of 1.25mg/kg i.v.
Excerpt: (§1) II. In-vivo bioassay system for determination of cannabinoid activity
(§2) Substances with affinity for cannabinoid receptors are known to produce a wide range of pharmacological effects. It is also known that intravenous administration of a substance with affinity for cannabinoid receptors in mice produces analgesia , hypothermia, sedation and catalepsy. Individually, none of these effects can be considered as proof that a tested substance has affinity for cannabinoid-receptors, since all of these effects are common for various classes of centrally active agents. However, substances, which show all of these effects, i.e. substances that are active in this so-called tetrad model are considered to have affinity for the cannabinoid receptors. It has further been shown that cannabinoid receptor antagonists are higly effective in blocking the effects of a cannabinoid agonist in the mouse tetrad model.
(§3) The tetrad model is described, for example, in the publication of A. C. Howlett et al, international Union of Pharmacology XXVII. Classification of Cannabinoid Receptors, Pharmacol Rev 54, 161-202 , 2002 and David R. Compton et al., "In-vivo Characterization of a Specific Cannabinoid Receptor Antagonist (SR141716A) :Inhibition of Tetrahydrocannbinol- induced Responses and Apparent Agonist Activity", J. Pharmacol. Exp. Ther. 277 , 2, 586-594, 1996. The corresponding parts of the description are hereby incorporated by reference. […]
(§4) Before testing in the behavioral procedures given below, mice are acclimatized to the experimental setting. Pre-Treatment control values are determined for analgesia hot plate latency (in seconds), rectal temperature, sedation and catalepsy.
(§5) In order to determine the agonistic activty of the substance to be tested, the mice are injected intravenously with the substance to be tested or the vehicle alone. 15 minutes after injection, latency in hot plate analgesia is measured. Rectal temperature, sedation and catalepsy are measured 20 minutes after injection.
(§6) In order to determine the antagonistic activity the identical procedure is used as for the determination of the agonistic effects, but with the difference that the substance to be evaluated for its antagonistic activity is injectected 5 minutes before the intravenous injection of 1.25 mg/kg Win-55,212 a known cannabinoid-receptor agonist.
The hot plate analgesia is determined according to the method described in Woolfe D. et al. "The evaluation of analgesic action of pethidine hydrochloride (Demerol)", J. Pharmacol. Exp. Ther. 80, 300-307,1944. […]
The mice are placed on a hot plate (Harvard Analgesimeter) at 55 ± 0.5 °C until they show a painful sensation by licking their paws or jumping and the time for these sensations to occur is recorded. This reading is considered the basal value (B). […]

CB2-Receptor = molecular target: T1, CB2-Receptor (Homo sapiens, UniProt P34972); assay: In-vitro determination of affinity to CB2 receptor (radioligand [^3H]-CP55940); assay type: binding
T1 construct: purchased Receptor Biology, Inc
Description: (§7) I. In-vitro determination of affinity to CB1/CB2-Receptors
(§8) The in-vitro determination of the affinity of the substituted pyrazoline compounds to CB1/CB2-Rezeptors is carried out as described in the publication of Ruth A. Ross, Heather C. Brockie et al., "Agonist-inverse agonist characterization at CB1 and CB2 cannabinoid receptors of L-759633. L759656 and AM630", British Journal of Pharmacology, 126, 665-672, (1999), whereby the transfected human CB1 and CB2 receptors of Receptor Biology, Inc. are used. The radioligand used for both receptors is [^3H]-CP55940. The respective parts of the description is hereby incorporated by reference and forms part of the present disclosure.

Male NMRI mice [2] = assay: Mouse tetrad model: sedation and ataxia; assay type: in vivo; conditions: for Agonistic effect D: Sedation: 5 mg/kg i.v.; for Antagonistic Effect D: Sedation: 5 mg/kg i.v. prior to Win 55212-2 in a dose of 1.25mg/kg i.v.
Excerpt: as §1, §2
The tetrad model is described, for example, in the publication of A. C. Howlett et al, international Union of Pharmacology XXVII. Classification of Cannabinoid Receptors, Pharmacol Rev 54, 161-202 , 2002 and David R. Compton et al., "In-vivo Characterization of a Specific Cannabinoid Receptor Antagonist (SR141716A) :Inhibition of Tetrahydrocannbinol- induced Responses and Apparent Agonist Activity", J. Pharmacol. Exp. Ther. 277 , 2, 586-594, 1996. The corresponding parts of the description are hereby incorporated by reference.
Male NMRI mice with a weight of 20-30 g (Harlan, Barcelona, Spain) are used in all of the following experiments.
as §4, §5, §6
Determination of sedation and ataxia
Sedation and ataxia is determined according to the method described in Desmet L. K. C. et al. "Anticonvulsive properties of Cinarizine and Flunarizine in Rats and Mice", Arzneim. -Forsch. (Frug Res) 25, 9, 1975. […]
The percentage of sedation is determined according to the formula: %of sedation = arithmetic mean/3 × 100 [formula]

CB1-Receptor = molecular target: T2, CB1-Receptor (Homo sapiens, UniProt P21554); assay: In-vitro determination of affinity to CB1 receptor (radioligand [^3H]-CP55940); assay type: binding
T2 construct: purchased Receptor Biology, Inc
Description: as §7, §8

Male NMRI mice [3] = assay: Mouse tetrad model: hypothermia; assay type: in vivo; conditions: for Agonistic effect B: Hypothermia: 5 mg/kg i.v.; for Antagonistic Effect B: Hypothermia: 5 mg/kg i.v. prior to Win 55212-2 in a dose of 1.25mg/kg i.v.
Excerpt: as §1, §2
as §3, with “1996.” for “1996. The corresponding parts of the description are hereby incorporated by reference.”
as §4, §5, §6
Hypothermia is determined according to the method described in David R. Compton et al. "In-vivo Characterization of a Specific Cannabinoid Receptor Antagonist (SR141716A) Inhibition of Tetrahydrocannbinol- induced Responses and Apparent Agonist Activity", J. Pharmacol Exp Ther. 277 , 2, 586-594, 1996. […]
The base-line rectal temperatures are determined with a thermometer (Yello Springs Instruments Co., Panlabs) and a thermistor probe inserted to 25mm before the administration of the substance to be tested. […]

Male NMRI mice [4] = assay: Mouse tetrad model: catalepsy; assay type: in vivo; conditions: for Agonistic effect C: Catalepsy: 5 mg/kg i.v.; for Antagonistic Effect C: Catalepsy: 5 mg/kg i.v. prior to Win 55212-2 in a dose of 1.25mg/kg i.v.
Excerpt: as §1, §2
as §3, with “1996.” for “1996. The corresponding parts of the description are hereby incorporated by reference.”
as §4, §5, §6
Catalepsy is determined according to the method described in Alpermann H. G. et al. "Pharmacological effets of Hoe 249: A new potential antidepressant", Drugs Dev. […]
The cataleptic effect of the substance to be tested is evaluated according to the duration of catalepsy, whereby the animals are placed head downwards with their kinlegs upon the top of the wooden block. […]
The percentage of catalepsy is determined according ot the following formula: %Catalepsy = arithmetic mean/6 × 100 [formula]

T1 sequence (P34972 whole entry): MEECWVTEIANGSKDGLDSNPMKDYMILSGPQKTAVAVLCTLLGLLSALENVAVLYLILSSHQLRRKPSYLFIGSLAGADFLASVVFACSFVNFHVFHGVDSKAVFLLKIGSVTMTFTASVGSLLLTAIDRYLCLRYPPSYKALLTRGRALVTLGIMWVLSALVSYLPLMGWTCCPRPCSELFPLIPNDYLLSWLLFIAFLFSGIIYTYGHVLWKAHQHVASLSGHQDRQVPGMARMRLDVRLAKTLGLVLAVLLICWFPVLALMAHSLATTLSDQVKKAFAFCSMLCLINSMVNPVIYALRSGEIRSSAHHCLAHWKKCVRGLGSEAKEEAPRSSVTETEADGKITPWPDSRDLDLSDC
T2 sequence (P21554 whole entry): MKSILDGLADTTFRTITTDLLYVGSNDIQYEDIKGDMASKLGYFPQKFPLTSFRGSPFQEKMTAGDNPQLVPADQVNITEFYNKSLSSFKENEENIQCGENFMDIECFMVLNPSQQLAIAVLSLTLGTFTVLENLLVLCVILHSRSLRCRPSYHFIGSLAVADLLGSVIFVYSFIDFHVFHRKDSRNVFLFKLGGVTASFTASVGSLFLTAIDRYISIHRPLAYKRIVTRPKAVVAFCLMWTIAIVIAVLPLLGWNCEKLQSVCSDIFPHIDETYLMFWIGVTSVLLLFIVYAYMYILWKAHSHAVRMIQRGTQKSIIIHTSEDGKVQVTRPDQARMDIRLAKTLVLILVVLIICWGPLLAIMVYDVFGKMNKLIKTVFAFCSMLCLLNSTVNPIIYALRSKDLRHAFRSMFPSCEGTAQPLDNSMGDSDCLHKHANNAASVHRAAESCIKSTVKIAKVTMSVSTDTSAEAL

Row | SMILES | Agonistic effect A: Hot-Plate test (Male NMRI mice [1]) | Antagonistic Effect A: Hot-Plate test (Male NMRI mice [1]) | Ki (CB2-Receptor) [nM] | Agonistic effect D: Sedation (Male NMRI mice [2]) | Antagonistic Effect D: Sedation (Male NMRI mice [2]) | Ki (CB1-Receptor) [nM] | Agonistic effect B: Hypothermia (Male NMRI mice [3]) | Antagonistic Effect B: Hypothermia (Male NMRI mice [3]) | Agonistic effect C: Catalepsy (Male NMRI mice [4]) | Antagonistic Effect C: Catalepsy (Male NMRI mice [4])
1 | O=C(NN1CCCCC1)C1=NN(c2ccc(Cl)cc2Cl)C(c2ccc(Cl)cc2)C1 (stereo not shown) [Example 1, N-piperidinyl-5-(4-chlorophenyl)-1-(2,4-dichlorophenyl)-4,5-dihydro-1H-pyrazole-3-carboxamide] | 0 | 74 | > 1000 | 0 | 100 | < 25 | 0 | 100 | 0 | 100
2 | O=C(C1=NN(c2ccc(Cl)cc2Cl)C(c2ccc(Cl)cc2)C1)N1CCCCC1 (stereo not shown) [Example 5, [5-(4-Chloro-phenyl)-1-(2,4-dichloro-phenyl)-4,5-dihydro-1H-pyrazol-3-yl]-piperidin-1-yl-methanone] | 0 | 50 | ~1000 | 0 | 20 | – | 50 | 40 | 0 | 20
